# What was measured:
# PR^S17 [1] = conditions: PR^S17, predicted from genotype–phenotype data; cited from earlier work
# [2] = system: PR bearing the single V82A mutation; conditions: kinetic studies; cited from earlier work
# [3] = molecular target: PR^S17 (HIV-1 protease variant with 17 mutations); assay: Kinetic inhibition of PR^S17; assay type: biochemical; conditions: PR^S17 compared to PR
# [4] = molecular target: PR (wild-type HIV-1 protease); conditions: read-out: Inhibition constant (Ki), determined previously; cited from earlier work
# PR^V82A = conditions: read-out: Inhibition constant (Ki), determined previously; cited from earlier work
# [5] = molecular target: HIV-1 protease variant PR^S17 (HIV-1); assay: enzyme inhibition kinetics
# PR^S17 [6] = conditions: PR^S17, flap twisting by G48V implicated; cited from earlier work
# [7] = system: PR with 22 mutations in addition to inactivating D25N mutation; conditions: PR with 22 mutations in addition to D25N; cited from earlier work
# PR with M46L = conditions: cited from earlier work
# PR with G48V = conditions: cited from earlier work
# PR with I54V = conditions: cited from earlier work
# HIV-1 protease with G48V [8] = conditions: thermodynamic integration and MM-PBSA; cited from earlier work
# HIV-1 protease with G48V [9] = conditions: flap mutation G48V; cited from earlier work
compound,measurement,setting,value
CC(C)c1nc(CN(C)C(=O)N[C@H](C(=O)N[C@@H](Cc2ccccc2)C[C@H](O)[C@H](Cc2ccccc2)NC(=O)OCc2cncs2)C(C)C)cs1 [ritonavir],predicted resistance,PR^S17 [1],high-level resistance
same,affinity of PR with V82A for inhibitor,[2],significantly worse affinity
Ace-T-I-Nle-r-Nle-Q-R [p2-NC],Ki relative to the wild-type PR (fold better inhibition),[3],4.2
same,Ki,[4],2.17 µM
same,Ki,PR^V82A,0.53 µM
COC(=O)N[C@H](C(=O)N[C@@H](Cc1ccccc1)[C@@H](O)CN(Cc1ccc(-c2ccccn2)cc1)NC(=O)[C@@H](NC(=O)OC)C(C)(C)C)C(C)(C)C [atazanavir],predicted resistance,PR^S17 [1],high-level resistance
substrate analogue p2-NC (Ace-T-I-Nle-r-Nle-Q-R) (peptide),Ki,[5],0.514 µM
"CC(C)CN(C[C@@H](O)[C@H](Cc1ccccc1)NC(=O)O[C@H]1CO[C@H]2OCC[C@H]21)S(=O)(=O)c1ccc(N)cc1 [DRV, darunavir]",cross-resistance of PR^S17,PR^S17 [6],cross-resistance
same,resistance (fold),[7],> 175 fold
same,inhibition constant (Ki) relative to wild-type PR,PR with M46L,worse inhibition constants
same,inhibition constant (Ki) relative to wild-type PR,PR with G48V,worse inhibition constants
same,inhibition constant (Ki) relative to wild-type PR,PR with I54V,worse inhibition constants
same,affinity of PR with V82A for inhibitor,[2],significantly worse affinity
CC(C)(C)NC(=O)[C@@H]1CN(Cc2cccnc2)CCN1C[C@@H](O)C[C@@H](Cc1ccccc1)C(=O)N[C@H]1c2ccccc2C[C@H]1O [indinavir],predicted resistance,PR^S17 [1],high-level resistance
same,affinity of PR with V82A for inhibitor,[2],significantly worse affinity
Cc1c(O)cccc1C(=O)N[C@@H](CSc1ccccc1)[C@H](O)CN1C[C@H]2CCCC[C@H]2C[C@H]1C(=O)NC(C)(C)C [nelfinavir],predicted resistance,PR^S17 [1],high-level resistance
same,affinity of PR with V82A for inhibitor,[2],significantly worse affinity
substrate analogue CA-p2 (R-V-L-r-F-E-A-Nle) (peptide),Ki,[5],0.022 µM
Cc1cccc(C)c1OCC(=O)N[C@@H](Cc1ccccc1)[C@@H](O)C[C@H](Cc1ccccc1)NC(=O)[C@H](C(C)C)N1CCCNC1=O [lopinavir],predicted resistance,PR^S17 [1],high-level resistance
"CC(C)CN(C[C@@H](O)[C@H](Cc1ccccc1)NC(=O)O[C@H]1CCOC1)S(=O)(=O)c1ccc(N)cc1 [APV, amprenavir]",effect of G48V on van der Waals interactions,HIV-1 protease with G48V [8],strengthens van der Waals interactions
R-V-L-r-F-E-A-Nle [CA-p2],Ki,[4],0.075 µM
same,Ki,PR^V82A,0.024 µM
CC(C)(C)NC(=O)[C@@H]1C[C@@H]2CCCC[C@@H]2CN1C[C@@H](O)[C@H](Cc1ccccc1)NC(=O)[C@H](CC(N)=O)NC(=O)c1ccc2ccccc2n1 [saquinavir],predicted resistance,PR^S17 [1],high-level resistance
same,inhibition constant (Ki) relative to wild-type PR,PR with M46L,worse inhibition constants
same,inhibition constant (Ki) relative to wild-type PR,PR with G48V,worse inhibition constants
same,inhibition constant (Ki) relative to wild-type PR,PR with I54V,worse inhibition constants
same,resistance conferred by G48V,HIV-1 protease with G48V [9],high level of resistance
